Source: US12600716B2 (Gannex Pharma Co., Ltd., priority 2020, dated 2026)
Read-outs that look alike come from different tables or passages of the source.

Columns and labels:
hFXR-LBD-GAL4 = biological target: T1, hFXR-LBD-GAL4 (Homo sapiens, UniProt Q96RI1); assay: FXR agonist transactivation ability: luciferase reporter gene in HEK293T; assay type: cell-based; details: read-out: Cell activity
T1 construct: GAL4 (fusion partner); host or cells: HEK293T
T1 sequence (Q96RI1 262-486 limits assumed): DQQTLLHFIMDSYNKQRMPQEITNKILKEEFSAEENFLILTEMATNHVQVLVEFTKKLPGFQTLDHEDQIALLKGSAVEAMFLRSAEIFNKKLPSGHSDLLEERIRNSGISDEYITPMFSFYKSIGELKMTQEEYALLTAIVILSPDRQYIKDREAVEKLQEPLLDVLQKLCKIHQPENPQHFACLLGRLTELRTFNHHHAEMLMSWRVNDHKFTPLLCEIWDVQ
Protocol: FXR Agonist Transactivation Ability
Evaluation of the ability of the compound of the present invention to promote FXR transactivation was conducted by using luciferase reporter gene expression technology.
• 1. Cell line: HEK293T (Invitrogen) • 2. Expression plasmid: pBIND-hFXR-LBD-GAL4 (Promega), pGL4.35-luciferase (Promega) • 3. Cell culture medium: 10% serum and penicillin/streptomycin double antibody in DMEM medium • 4. Detection reagent: Steady-Glo fluorescence detection system (Promega). • 5. Transfection reagent: TransIT-293 Transfection Reagent (MIRUS BIO)
• 1. The compound was prepared into a 10 mM DMSO stock solution and stored in a −20° C. refrigerator for a long time. • 2. Resuscitation HEK293T cells were seeded in 10 cm culture dishes at a concentration of 5.5×10^6 and incubated for 16 hours at 37° C. in a 5% CO2 incubator. • 3. Return the transfection reagent to room temperature before transfection. The Trans-IT solution was added dropwise to Opti-MEM, and mixed by inversion for 5 minutes; the expression plasmid was added, mixed by inversion, and incubated at room temperature for 20 minutes. • 4. Add the transfection mixture from Step 3 to the prepared 10 cm dish in Step 2 and incubate for 5-6 hours in a 5% CO2 incubator. • 5. Dilute the compound 3 folds to 10 concentration points using DMSO; add 25 nl of compound per well in a 384-well plate using an Echo 550 sonic pipette; add HEK293T cells to the 384-well plate at a concentration of 15,000 cells/well; 37° C. incubate for 16-20 hours in a 5% CO2 incubator. • 6. Add 25 μl of Steady-Glo Fluorescent Reagent to each well and read the fluorescence on an Envision 2104 plate reader. • 7. Calculate the EC50 value of the activation of the compound.

[1] = Mouse pharmacokinetic studies (IV and PO); assay type: in vivo, Male CD-1 mice; details: for PO F: PO 10 mg/kg vs IV 2.0 mg/kg; for Vd / AUC(0-t) / clearance / half-life / Cmax / Tmax: male, CD-1, plasma; for clearance: read-out: IV Cl; for half-life: read-out: IV T½ (converted)
Protocol: Mouse Pharmacokinetic Studies
Typical PK study procedure. For i.v. PK studies, a group of three fasted Male CD-1 mice were dosed with the compound (2.0 mg/kg, 0.50 mg/mL in 5% solutol in saline, clear solution), and 0.02 mL blood was collected at 0.0830, 0.250, 0.500, 1.00, 2.00, 4.00, 8.00, 24.0 h. For PO PK studies, a group of three fasted Male CD-1 mice were dosed with the compound (10 mg/kg, 1 mg/mL in 5% solutol in saline, clear solution), and 0.02 mL blood was collected at 0.250, 0.500, 1.00, 2.00, 4.00, 6.00, 8.00, 24.0 h. The blood was collected into EP tubes (containing EDTA K20.85-1.15 mg) and centrifuged at 3,000 g or 3,200 g at 4° C. for 10 min) and plasma was isolated and divided into two vials. One was used for bioanalysis and one was kept as backup. The samples were kept at −60° C. or below, until being analyzed by LC MS/MS. The samples were analyzed with AB SCIEX INSTRUMENTS LC-MS/MS AU-Triple Quad 6500 Plus and data were processed with Phoenix WinNonlin 6.3 (IV-noncompartmental model and PO-noncompartmental model).

human FXR protein = biological target: T2, human FXR protein (Homo sapiens, UniProt Q96RI1); assay: FXR agonist binding ability: time-resolved fluorescence (LanthaScreen) FXR/coactivator assay; assay type: biochemical; details: GST-labeled human FXR, fluorescein-labeled coactivator, TR-FRET
T2 construct: purchased Invitrogen
Protocol: FXR Agonist Binding Ability Evaluation of the activation effect of the compound of the present invention with regard to the binding of FXR to its co-stimulatory factor SRC-1 was conducted by using time-resolved analytical techniques. Protein: glutathione-S-transferase (GST)-labeled human FXR protein (Invitrogen) • 2. Coactivator: Fluorescein-labeled steroid receptor coactivator (SRC2-2) (Invitrogen) • 3. Detection reagent: LanthaScreen Time-Resolved Fluorescence Analysis Kit (Invitrogen) • 1. The compound was prepared into a 10 mM DMSO stock solution and stored in a −20° C. refrigerator for a long time. • 2. The compound was diluted to 1 mM before the experiment, and then the compound was diluted 3-fold to 10 concentration points using DMSO. Then use buffer G (Invitrogen, PV4553) to dilute these 10 concentration points by 50 times to become a working fluid. Add 10 μl of each working solution to each well of a 384-well plate. • 3. Prepare a human FXR protein solution (final concentration 20 nM) in chilled buffer G and add 5 μl of human FXR protein solution to each well of a 384-well plate. • 4. Prepare a mix of buffer G containing 2 μM fluorescein-labeled steroid receptor coactivator and 20 nM GST antibody. • 5. Add 5 μl of the mixture prepared in Step 4 to a 384-well plate. • 6. Centrifuge the 384-well plate at 1000 g for 1 minute. • 7. Incubate for 1 hour at room temperature in the dark. • 8. Read the 384-well plate at 520 nm and 495 nm on an Envision 2104 plate reader. • 9. Calculate the EC50 value of the activation effect of the compound.

[2] = IV 2.0 mg/kg, read-out: IV AUC 0-t
[3] = PO 10 mg/kg, read-out: PO AUC 0-t

Cc1nc(Oc2ccc3cc(OCc4c(-c5c(Cl)cccc5Cl)noc4C4CC4)ccc3c2)ccc1C(=O)O [Compound 10, 6-((6-((5-cyclopropyl-3-(2,6-dichlorophenyl)isoxazol-4-yl)methoxy)naphthalen-2-yl)oxy)-2-methylnicotinic acid]
EC50 (hFXR-LBD-GAL4): < 0.2 µM | PO F [1]: 52.6% | Vd ([1]; IV 2.0 mg/kg): 0.66 L/kg | AUC(0-t) [1, 2]: 3.55 µg·h/mL | clearance ([1]; IV 2.0 mg/kg): 0.556 L/h/kg | half-life ([1]; IV 2.0 mg/kg): 96 min | Cmax ([1]; PO 10 mg/kg): 5.5 µg/mL | Tmax ([1]; PO 10 mg/kg): 25 min | AUC(0-t) [1, 3]: 9.36 µg·h/mL | EC50 (human FXR protein): 0.05 to 0.5 µM

O=C(O)c1ccnc(Oc2cccc3cc(OCc4c(-c5c(Cl)cccc5Cl)noc4C4CC4)ccc23)c1 [Compound 24, 2-((6-((5-cyclopropyl-3-(2,6-dichlorophenyl)isoxazol-4-yl)methoxy)naphthalen-1-yl)oxy)isonicotinic acid]
EC50 (hFXR-LBD-GAL4): < 0.2 µM | PO F [1]: 12% | Vd ([1]; IV 2.0 mg/kg): 2.94 L/kg | AUC(0-t) [1, 2]: 0.33 µg·h/mL | clearance ([1]; IV 2.0 mg/kg): 6.3 L/h/kg | half-life ([1]; IV 2.0 mg/kg): 56.4 min | Cmax ([1]; PO 10 mg/kg): 0.209 µg/mL | Tmax ([1]; PO 10 mg/kg): 18 min | AUC(0-t) [1, 3]: 0.198 µg·h/mL | EC50 (human FXR protein): < 0.05 µM

O=C(O)c1ccc(Oc2cccc3cc(OCc4c(-c5c(Cl)cccc5Cl)noc4C4CC4)ccc23)nc1 [Compound 22, 6-((6-((5-cyclopropyl-3-(2,6-dichlorophenyl)isoxazol-4-yl)methoxy)naphthalen-1-yl)oxy)nicotinic acid]
EC50 (hFXR-LBD-GAL4): < 0.2 µM | PO F [1]: 32% | Vd ([1]; IV 2.0 mg/kg): 1.84 L/kg | AUC(0-t) [1, 2]: 0.448 µg·h/mL | clearance ([1]; IV 2.0 mg/kg): 4.43 L/h/kg | half-life ([1]; IV 2.0 mg/kg): 50.2 min | Cmax ([1]; PO 10 mg/kg): 0.894 µg/mL | Tmax ([1]; PO 10 mg/kg): 30 min | AUC(0-t) [1, 3]: 0.718 µg·h/mL | EC50 (human FXR protein): < 0.05 µM

O=C(O)c1cccc(Oc2ccc3cc(OCc4c(-c5c(Cl)cccc5Cl)noc4C4CC4)ccc3c2)n1 [Compound 11, 6-((6-((5-cyclopropyl-3-(2,6-dichlorophenyl)isoxazol-4-yl)methoxy)naphthalen-2-yl)oxy)picolinic acid]
EC50 (hFXR-LBD-GAL4): 0.5 to 1 µM | PO F [1]: 33.3% | Vd ([1]; IV 2.0 mg/kg): 0.294 L/kg | AUC(0-t) [1, 2]: 4.98 µg·h/mL | clearance ([1]; IV 2.0 mg/kg): 0.4 L/h/kg | half-life ([1]; IV 2.0 mg/kg): 86.4 min | Cmax ([1]; PO 10 mg/kg): 5.73 µg/mL | Tmax ([1]; PO 10 mg/kg): 30 min | AUC(0-t) [1, 3]: 8.33 µg·h/mL | EC50 (human FXR protein): < 0.05 µM

Cc1nc(Oc2c(F)ccc3cc(OCc4c(-c5c(Cl)cccc5Cl)noc4C4CC4)ccc23)ccc1C(=O)O [Compound 45, 6-((6-((5-cyclopropyl-3-(2,6-dichlorophenyl)isoxazol-4-yl)methoxy)-2-fluoronaphthalen-1-yl)oxy)-2-methylnicotinic acid]
EC50 (hFXR-LBD-GAL4): < 0.2 µM | PO F [1]: 15.7% | Vd ([1]; IV 2.0 mg/kg): 1.04 L/kg | AUC(0-t) [1, 2]: 1.5 µg·h/mL | clearance ([1]; IV 2.0 mg/kg): 1.33 L/h/kg | half-life ([1]; IV 2.0 mg/kg): 84 min | Cmax ([1]; PO 10 mg/kg): 0.627 µg/mL | Tmax ([1]; PO 10 mg/kg): 60 min | AUC(0-t) [1, 3]: 1.14 µg·h/mL | EC50 (human FXR protein): < 0.05 µM

O=C(O)c1ccc(F)cc1Oc1c(F)ccc2cc(OCc3c(-c4c(Cl)cccc4Cl)noc3C3CC3)ccc12 [Compound 44, 2-((6-((5-cyclopropyl-3-(2,6-dichlorophenyl)isoxazol-4-yl)methoxy)-2-fluoronaphthalen-1-yl)oxy)-4-fluorobenzoic acid]
EC50 (hFXR-LBD-GAL4): < 0.2 µM | PO F [1]: 23.7% | Vd ([1]; IV 2.0 mg/kg): 2.06 L/kg | AUC(0-t) [1, 2]: 0.559 µg·h/mL | clearance ([1]; IV 2.0 mg/kg): 3.62 L/h/kg | half-life ([1]; IV 2.0 mg/kg): 73.8 min | Cmax ([1]; PO 10 mg/kg): 0.384 µg/mL | Tmax ([1]; PO 10 mg/kg): 56 min | AUC(0-t) [1, 3]: 0.646 µg·h/mL | EC50 (human FXR protein): < 0.05 µM

O=C(O)c1ccc(Oc2ccc3ccc(OCc4c(-c5c(Cl)cccc5Cl)noc4C4CC4)cc3c2)nc1 [Compound 31, 6-((7-((5-cyclopropyl-3-(2,6-dichlorophenyl)isoxazol-4-yl)methoxy)naphthalen-2-yl)oxy)nicotinic acid]
EC50 (hFXR-LBD-GAL4): < 0.2 µM | PO F [1]: 9.74% | Vd ([1]; IV 2.0 mg/kg): 2.77 L/kg | AUC(0-t) [1, 2]: 0.304 µg·h/mL | clearance ([1]; IV 2.0 mg/kg): 6.6 L/h/kg | half-life ([1]; IV 2.0 mg/kg): 36.8 min | Cmax ([1]; PO 10 mg/kg): 0.133 µg/mL | Tmax ([1]; PO 10 mg/kg): 20 min | AUC(0-t) [1, 3]: 0.14 µg·h/mL | EC50 (human FXR protein): < 0.05 µM

Cc1cc(C(=O)O)cnc1Oc1cccc2cc(OCc3c(-c4c(Cl)cccc4Cl)noc3C3CC3)ccc12 [Compound 28, 6-((6-((5-cyclopropyl-3-(2,6-dichlorophenyl)isoxazol-4-yl)methoxy)naphthalen-1-yl)oxy)-5-methylnicotinic acid]
EC50 (hFXR-LBD-GAL4): < 0.2 µM | PO F [1]: 29.9% | Vd ([1]; IV 2.0 mg/kg): 0.663 L/kg | AUC(0-t) [1, 2]: 1.18 µg·h/mL | clearance ([1]; IV 2.0 mg/kg): 1.7 L/h/kg | half-life ([1]; IV 2.0 mg/kg): 58.6 min | Cmax ([1]; PO 10 mg/kg): 2.13 µg/mL | Tmax ([1]; PO 10 mg/kg): 30 min | AUC(0-t) [1, 3]: 1.74 µg·h/mL | EC50 (human FXR protein): < 0.05 µM
